Data: ChEMBL document CHEMBL2396621, “Design, synthesis and biological evaluation of 2-mercapto-3-phenethylquinazoline bearing anilide fragments as potential antitumor agents: molecular docking study” (2013)

Key:
Format in all cases: functional
SF-295 = test: Cytotoxicity against human SF295 cells assessed as growth inhibition at 10 uM after 48 hrs by coulter counter analysis; settings: SF-295, 48 h, read-out: GI
MDA-MB-435 = test: Cytotoxicity against human MDA-MB-435 cells assessed as growth inhibition at 10 uM after 48 hrs by coulter counter analysis; settings: MDA-MB-435, 48 h, read-out: GI
UO-31 = test: Cytotoxicity against human UO31 cells assessed as growth inhibition at 10 uM after 48 hrs by coulter counter analysis; settings: UO-31, 48 h, read-out: GI
COLO 205 = test: Cytotoxicity against human COLO205 cells assessed as growth inhibition at 10 uM after 48 hrs by coulter counter analysis; settings: COLO 205, 48 h, read-out: GI
CAKI-1 = test: Cytotoxicity against human Caki1 cells assessed as growth inhibition at 10 uM after 48 hrs by coulter counter analysis; settings: CAKI-1, 48 h, read-out: GI
TK-10 = test: Cytotoxicity against human TK10 cells assessed as growth inhibition at 10 uM after 48 hrs by coulter counter analysis; settings: TK-10, 48 h, read-out: GI
OVCAR-5 = test: Cytotoxicity against human OVCAR5 cells assessed as growth inhibition at 10 uM after 48 hrs by coulter counter analysis; settings: OVCAR-5, 48 h, read-out: GI
UACC-257 = test: Cytotoxicity against human UACC257 cells assessed as growth inhibition at 10 uM after 48 hrs by coulter counter analysis; settings: UACC-257, 48 h, read-out: GI
MDA-MB-468 = test: Cytotoxicity against human MDA-MB-468 cells assessed as growth inhibition at 10 uM after 48 hrs by coulter counter analysis; settings: MDA-MB-468, 48 h, read-out: GI
MCF7 = test: Cytotoxicity against human MCF7 cells assessed as growth inhibition at 10 uM after 48 hrs by coulter counter analysis; settings: MCF7, 48 h, read-out: GI
SW-620 = test: Cytotoxicity against human SW620 cells assessed as growth inhibition at 10 uM after 48 hrs by coulter counter analysis; settings: SW-620, 48 h, read-out: GI
SK-MEL-28 = test: Cytotoxicity against human SK-MEL-28 cells assessed as growth inhibition at 10 uM after 48 hrs by coulter counter analysis; settings: SK-MEL-28, 48 h, read-out: GI
M14 = test: Cytotoxicity against human M14 cells assessed as growth inhibition at 10 uM after 48 hrs by coulter counter analysis; settings: M14, 48 h, read-out: GI
IGROV-1 = test: Cytotoxicity against human IGROV1 cells assessed as growth inhibition at 10 uM after 48 hrs by coulter counter analysis; settings: IGROV-1, 48 h, read-out: GI
NCI-H322M = test: Cytotoxicity against human NCI-H322M cells assessed as growth inhibition at 10 uM after 48 hrs by coulter counter analysis; settings: read-out: GI
KM12 = test: Cytotoxicity against human KM12 cells assessed as growth inhibition at 10 uM after 48 hrs by coulter counter analysis; settings: KM12, 48 h, read-out: GI
Malme-3M = test: Cytotoxicity against human MALME-3M cells assessed as growth inhibition at 10 uM after 48 hrs by coulter counter analysis; settings: read-out: GI
NCI-H226 = test: Cytotoxicity against human NCI-H226 cells assessed as growth inhibition at 10 uM after 48 hrs by coulter counter analysis; settings: NCI-H226, 48 h, read-out: GI
SF-268 = test: Cytotoxicity against human SF268 cells assessed as growth inhibition at 10 uM after 48 hrs by coulter counter analysis; settings: SF-268, 48 h, read-out: GI
SNB-19 = test: Cytotoxicity against human SNB19 cells assessed as growth inhibition at 10 uM after 48 hrs by coulter counter analysis; settings: SNB-19, 48 h, read-out: GI
[1] = Cytotoxicity against human EKVX cells assessed as growth inhibition at 10 uM after 48 hrs by coulter counter analysis; settings: read-out: GI
SN12C = test: Cytotoxicity against human SN12C cells assessed as growth inhibition at 10 uM after 48 hrs by coulter counter analysis; settings: read-out: GI
UACC-62 = test: Cytotoxicity against human UACC62 cells assessed as growth inhibition at 10 uM after 48 hrs by coulter counter analysis; settings: UACC-62, 48 h, read-out: GI
A498 = test: Cytotoxicity against human A498 cells assessed as growth inhibition at 10 uM after 48 hrs by coulter counter analysis; settings: A498, 48 h, read-out: GI
[2] = Cytotoxicity against human NCI-ADR-RES cells assessed as growth inhibition at 10 uM after 48 hrs by coulter counter analysis; settings: read-out: GI
OVCAR-8 = test: Cytotoxicity against human OVCAR8 cells assessed as growth inhibition at 10 uM after 48 hrs by coulter counter analysis; settings: OVCAR-8, 48 h, read-out: GI
U-251 = test: Cytotoxicity against human U251 cells assessed as growth inhibition at 10 uM after 48 hrs by coulter counter analysis; settings: U-251, 48 h, read-out: GI
LOX IMVI = test: Cytotoxicity against human LOXIMVI cells assessed as growth inhibition at 10 uM after 48 hrs by coulter counter analysis; settings: read-out: GI
RXF 393 = test: Cytotoxicity against human RXF393 cells assessed as growth inhibition at 10 uM after 48 hrs by coulter counter analysis; settings: RXF 393, 48 h, read-out: GI
HT-29 = test: Cytotoxicity against human HT-29 cells assessed as growth inhibition at 10 uM after 48 hrs by coulter counter analysis; settings: HT-29, 48 h, read-out: GI
SNB-75 = test: Cytotoxicity against human SNB75 cells assessed as growth inhibition at 10 uM after 48 hrs by coulter counter analysis; settings: SNB-75, 48 h, read-out: GI
786-0 = test: Cytotoxicity against human 786-0 cells assessed as growth inhibition at 10 uM after 48 hrs by coulter counter analysis; settings: 786-0, 48 h, read-out: GI
OVCAR-4 = test: Cytotoxicity against human OVCAR4 cells assessed as growth inhibition at 10 uM after 48 hrs by coulter counter analysis; settings: OVCAR-4, 48 h, read-out: GI
PC-3 = test: Cytotoxicity against human PC3 cells assessed as growth inhibition at 10 uM after 48 hrs by coulter counter analysis; settings: PC-3, 48 h, read-out: GI
SK-OV-3 = test: Cytotoxicity against human SKOV3 cells assessed as growth inhibition at 10 uM after 48 hrs by coulter counter analysis; settings: SK-OV-3, 48 h, read-out: GI
HCT-15 = test: Cytotoxicity against human HCT15 cells assessed as growth inhibition at 10 uM after 48 hrs by coulter counter analysis; settings: HCT-15, 48 h, read-out: GI
T47D = test: Cytotoxicity against human T47D cells assessed as growth inhibition at 10 uM after 48 hrs by coulter counter analysis; settings: read-out: GI
A549 = test: Cytotoxicity against human A549 cells assessed as growth inhibition at 10 uM after 48 hrs by coulter counter analysis; settings: A549, 48 h, read-out: GI

For `O=C(CSc1nc2ccccc2c(=O)n1CCc1ccccc1)Nc1ccccc1`, the inhibition of growth at 10 µM (SF-295) was < 10%, the inhibition of growth at 10 µM (MDA-MB-435) was < 10% and the inhibition of growth at 10 µM (UO-31) was < 10%. For the same compound, the inhibition of growth at 10 µM (COLO 205) was < 10%, the inhibition of growth at 10 µM (CAKI-1) was < 10% and the inhibition of growth at 10 µM (TK-10) was < 10%. The inhibition of growth at 10 µM (OVCAR-5) was < 10%, the inhibition of growth at 10 µM (UACC-257) was < 10% and the inhibition of growth at 10 µM (MDA-MB-468) was 18%. For the same compound, the inhibition of growth at 10 µM (MCF7) was 19%, the inhibition of growth at 10 µM (SW-620) was < 10% and the inhibition of growth at 10 µM (SK-MEL-28) was < 10%. For the same compound, the inhibition of growth at 10 µM (M14) was 10%, the inhibition of growth at 10 µM (IGROV-1) was < 10% and the inhibition of growth at 10 µM (NCI-H322M) was < 10%. For the same compound, the inhibition of growth at 10 µM (KM12) was < 10%, the inhibition of growth at 10 µM (Malme-3M) was < 10% and the inhibition of growth at 10 µM (NCI-H226) was < 10%. The inhibition of growth at 10 µM (SF-268) was < 10%, the inhibition of growth at 10 µM (SNB-19) was < 10% and the inhibition of growth at 10 µM [1] was 16%. The inhibition of growth at 10 µM (SN12C) was < 10%, the inhibition of growth at 10 µM (UACC-62) was 16% and the inhibition of growth at 10 µM (A498) was 11%. The inhibition of growth at 10 µM [2] was < 10%, the inhibition of growth at 10 µM (OVCAR-8) was < 10% and the inhibition of growth at 10 µM (U-251) was < 10%. The inhibition of growth at 10 µM (LOX IMVI) was 11%, the inhibition of growth at 10 µM (RXF 393) was < 10% and the inhibition of growth at 10 µM (HT-29) was < 10%. For the same compound, the inhibition of growth at 10 µM (SNB-75) was 12%, the inhibition of growth at 10 µM (786-0) was < 10% and the inhibition of growth at 10 µM (OVCAR-4) was < 10%. For the same compound, the inhibition of growth at 10 µM (PC-3) was 10%, the inhibition of growth at 10 µM (SK-OV-3) was 14% and the inhibition of growth at 10 µM (HCT-15) was < 10%. It also gave an inhibition of growth at 10 µM (T47D) of 13% and an inhibition of growth at 10 µM (A549) of 16%.
